Experimental data: US20260062422A1 (Halda Therapeutics OpCo, Inc., priority 2022, published 2026)

Molecular target: T1, androgen receptor (Homo sapiens, UniProt P10275)
T1 sequence (P10275 1-920 T878A): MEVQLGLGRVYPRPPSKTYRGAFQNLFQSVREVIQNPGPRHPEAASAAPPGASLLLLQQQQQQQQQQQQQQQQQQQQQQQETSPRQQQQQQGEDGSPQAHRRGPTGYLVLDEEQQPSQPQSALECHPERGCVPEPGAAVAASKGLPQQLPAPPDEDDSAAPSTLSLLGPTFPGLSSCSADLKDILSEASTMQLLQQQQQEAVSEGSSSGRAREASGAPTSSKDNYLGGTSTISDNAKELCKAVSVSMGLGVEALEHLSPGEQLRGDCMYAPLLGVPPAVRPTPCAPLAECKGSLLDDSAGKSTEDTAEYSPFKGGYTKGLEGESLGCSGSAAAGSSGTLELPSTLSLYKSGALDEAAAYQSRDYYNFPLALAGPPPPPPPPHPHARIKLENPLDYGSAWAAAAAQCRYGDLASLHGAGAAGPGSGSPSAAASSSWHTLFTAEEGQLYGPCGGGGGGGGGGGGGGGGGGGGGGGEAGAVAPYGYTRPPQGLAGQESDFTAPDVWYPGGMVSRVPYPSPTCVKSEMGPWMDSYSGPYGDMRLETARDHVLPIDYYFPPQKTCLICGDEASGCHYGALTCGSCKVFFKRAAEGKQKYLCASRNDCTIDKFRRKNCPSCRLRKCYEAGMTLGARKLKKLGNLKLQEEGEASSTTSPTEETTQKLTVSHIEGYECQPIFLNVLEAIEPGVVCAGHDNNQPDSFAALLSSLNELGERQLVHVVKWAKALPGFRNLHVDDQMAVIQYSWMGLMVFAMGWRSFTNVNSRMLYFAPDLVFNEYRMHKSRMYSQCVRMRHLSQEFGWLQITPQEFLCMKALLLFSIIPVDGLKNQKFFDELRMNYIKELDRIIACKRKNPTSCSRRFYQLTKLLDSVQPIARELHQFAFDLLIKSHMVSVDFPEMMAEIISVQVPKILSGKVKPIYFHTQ
Assay: Assay for binding affinity to androgen receptor ([3H]methyltrienolone radioligand, cell cytosol)
Conditions: 1 nM [3H]methyltrienolone, 24 hours at 4° C., Table 5
Protocol: Fractions of cell cytosol ([…] cell/point) were incubated for 24 hours at 4° C. with 1 nM [^3H]methyltrienolone in the absence or presence of the test compound in a buffer containing 25 mM Hepes-Tris (pH 7.4), 1 mM EDTA, 10 mM Na2MoO4, 2 mM DTT, 5 μM triamcinolone acetonide, and 10% glycerol. Nonspecific binding was determined in the presence of 1 μM testosterone. Following incubation, the samples were filtered rapidly under vacuum through glass fiber filters (GF/B, Packard) presoaked with 0.3% PEI and rinsed several times with ice-cold 50 mM Tris-HCl using a 96-sample cell harvester (Unifilter, Packard). The filters were dried then counted for radioactivity in a scintillation counter (Topcount, Packard) using a scintillation cocktail (Microscint 0, Packard). The results are expressed as a percent inhibition of the control radioligand specific binding. The standard reference compound is testosterone, which is tested in each experiment at several concentrations to obtain a competition curve from which its IC50 is calculated.

Row | Compound | Kd [nM]
1 | CCNC(=O)C[C@@H]1N=C(c2cccc(OCCOCCOCCOC3CCN(c4ncc(C(=O)N[C@H]5C(C)(C)[C@H](Oc6ccc(C#N)c(Cl)c6)C5(C)C)cn4)CC3)c2)c2c(sc(C)c2C)-n2c(C)nnc21 [Compound I-48, N-((1r,3r)-3-(3-chloro-4-cyanophenoxy)-2,2,4,4-tetramethylcyclobutyl)-2-(4-(2-(2-(2-(3-((S)-6-(2-(ethylamino)-2-oxoethyl)-2,3,9-trimethyl-6H-thieno[3,2-f][1,2,4]triazolo[4,3-a][1,4]diazepin-4-yl)phenoxy)ethoxy)ethoxy)ethoxy)piperidin-1-yl)pyrimidine-5-carboxamide] | < 50
2 | Cc1sc2c(c1C)C(c1ccc(Cl)cc1)=N[C@H](CC(=O)NCCOCCOCCOCCOC1CCN(c3ncc(C(=O)N[C@H]4C(C)(C)[C@H](Oc5ccc(C#N)c(Cl)c5)C4(C)C)cn3)CC1)c1nnc(C)n1-2 [Compound I-13] | < 50
3 | CCNC(=O)C[C@@H]1N=C(c2ccc(N3CCC(N(C)C4CN(c5ncc(C(=O)N[C@H]6C(C)(C)[C@H](Oc7ccc(C#N)c(Cl)c7)C6(C)C)cn5)C4)CC3)cc2)c2c(sc(C)c2C)-n2c(C)nnc21 [Compound I-123] | < 50
4 | Cc1sc2c(c1C)C(c1ccc(OCCOC3CCN(c4ncc(C(=O)N[C@H]5C(C)(C)[C@H](Oc6ccc(C#N)c(Cl)c6)C5(C)C)cn4)CC3)cc1)=N[C@@H](CC(=O)O)c1nnc(C)n1-2 [Compound I-38] | < 50
5 | Cc1sc2c(c1C)C(c1cccc(OCCOCCOCCOC3CCN(c4ncc(C(=O)N[C@H]5C(C)(C)[C@H](Oc6ccc(C#N)c(Cl)c6)C5(C)C)cn4)CC3)c1)=N[C@@H](CC(=O)O)c1nnc(C)n1-2 [Compound I-43] | < 50
6 | Cc1sc2c(c1C)C(c1ccc(N3CC(C4CCN(c5ncc(C(=O)N[C@H]6C(C)(C)[C@H](Oc7ccc(C#N)c(Cl)c7)C6(C)C)cn5)CC4)C3)cc1)=N[C@@H](C)c1nnc(C)n1-2 [Compound I-271] | < 50
7 | CCNC(=O)C[C@@H]1N=C(c2ccc(N3CCC(CN4CC(Oc5ncc(C(=O)N[C@H]6C(C)(C)[C@H](Oc7ccc(C#N)c(Cl)c7)C6(C)C)cn5)C4)CC3)cc2)c2c(sc(C)c2C)-n2c(C)nnc21 [Compound I-124] | < 50
8 | CCNC(=O)C[C@@H]1N=C(c2cccc(OCCOCCOC3CCN(c4ncc(C(=O)N[C@H]5C(C)(C)[C@H](Oc6ccc(C#N)c(Cl)c6)C5(C)C)cn4)CC3)c2)c2c(sc(C)c2C)-n2c(C)nnc21 [Compound I-47, N-((1r,3r)-3-(3-chloro-4-cyanophenoxy)-2,2,4,4-tetramethylcyclobutyl)-2-(4-(2-(2-(3-((S)-6-(2-(ethylamino)-2-oxoethyl)-2,3,9-trimethyl-6H-thieno[3,2-f][1,2,4]triazolo[4,3-a][1,4]diazepin-4-yl)phenoxy)ethoxy)ethoxy)piperidin-1-yl)pyrimidine-5-carboxamide] | < 50
9 | Cc1sc2c(c1C)C(c1ccc(Cl)cc1)=N[C@@H](CC(=O)NCCCN1CCN(CCCOC3CCN(c4ncc(C(=O)N[C@H]5C(C)(C)[C@H](Oc6ccc(C#N)c(Cl)c6)C5(C)C)cn4)CC3)CC1)c1nnc(C)n1-2 [Compound I-10] | < 50
10 | Cc1sc2c(c1C)C(c1ccc(OCCOCCOCCOC3CCN(c4ncc(C(=O)N[C@H]5C(C)(C)[C@H](Oc6ccc(C#N)c(Cl)c6)C5(C)C)cn4)CC3)cc1)=N[C@@H](CC(=O)O)c1nnc(C)n1-2 [Compound I-40] | < 50

Tested on: T-Rex 293 cell line SC cells lacking increased expression of progesterone receptor isoform B protein
Assay: Cellular growth inhibition, T-Rex 293 SC cells without doxycycline, Example 47
Format: cell-based
Conditions: T-Rex 293 SC cells not exposed to doxycycline, 72 hours, CellTiter-Glo 2.0; Table 15 (Example 47)
Protocol: The following types of cells were prepared for this experiment: (i) a T-Rex 293 cell line having increased expression of progesterone receptor isoform B protein due to exposure to doxycycline and (ii) a T-Rex 293 cell line lacking increased expression of progesterone receptor isoform B protein. Ability of the test compounds to inhibit proliferation of the foregoing cell types was evaluated according to the procedures set forth below.
The doxycycline-inducible progesterone receptor isoform B protein expressing cell line was established using the following protocol: T-Rex 293 cells were purchased from Invitrogen (Cat #R71007) and transfected using Lipofectamine 2000 with the wild-type progesterone receptor B protein sequence cloned into the pcDNA4/TO vector. Transfected cells were selected using 400 μg/mL Zeocin (Invitrogen Cat #R25001). Following selection, single clones were raised and maintained in Dulbecco's Modified Eagle Medium (DMEM) supplemented with 10% w/w Tetracycline-free fetal bovine serum (FBS) and 250 μg/mL Zeocin. Clones were analyzed for expression of progesterone receptor isoform B protein in the presence and absence of 10 ng/mL doxycycline (Sigma Cat #D9891), and a single doxycycline-inducible clone (hereinafter “SC”) was selected for use in downstream assays.
The SC cells were seeded on poly-D-lysine coated, black clear-bottom 384-well plates at 2500/well, in 25 μL Phenol Red Free Dulbecco's Modified Eagle Medium (DMEM) supplemented with 10% w/w charcoal-dextran treated fetal bovine serum (FBS) and 1% w/w pen-strep, with or without 10 ng/mL doxycycline. Pen-Strep is a commercially available mixture of penicillin G and streptomycin, which is used in mammalian cell culture media to prevent bacterial contamination. Phenol Red Free Dulbecco's Modified Eagle Medium (DMEM) supplemented with 10% w/w charcoal-dextran treated fetal bovine serum (FBS) and 1% w/w pen-strep, with or without 10 ng/mL doxycycline is herein referred to as Treatment Medium. Following seeding of cells in the plates, the plates were spun at 300×g for 30 seconds, then equilibrated to room temperature for 30 minutes, and then deposited in a humidified tissue culture incubator maintained at 37° C. with 5% CO2.
At 24 hours after seeding of the cells, dilutions of test compound were prepared in DMSO and dissolved in Treatment Medium, to achieve a final DMSO concentration of 0.5% w/w, thereby providing the Test Compound Solution. A 25 μL aliquot of the Test Compound Solution was added to cells in the well plates. An equal volume of a solution containing DMSO and Treatment Medium was used as a negative control. Following treatment of cells with Test Compound Solution or said equal volume of a solution containing DMSO and Treatment Medium, the plates were spun at 300×g for 30 seconds, and then left in an incubator for 72 hours.
At the end of the treatment duration, cell viability was quantified with CellTiter-Glo 2.0 reagent (Promega Cat #G9243). For this purpose, plates were equilibrated to room temperature for 30 minutes, and then 25 μL of CellTiter-Glo 2.0 reagent was added to cells in the plate wells. Plates were then agitated on a shaker for two minutes at 500 rpm and subsequently incubated at room temperature for 10 minutes. Following incubation, the plates were spun at 3000×g for 30 seconds, then sealed with an optical adhesive cover, and luminescence readings were measured with an EnVision Plate Reader (Perkin Elmer).
Data was normalized using zero luminescence for baseline. A four-parameter non-linear regression curve fit was applied to dose-response data in GraphPad Prism data analysis software to determine the half-maximal growth inhibitory concentration (GI50) for each test compound.

Row | Compound | GI50 [nM]
11 | Cc1sc2c(c1C)C(c1ccc(Cl)cc1)=N[C@@H](CC(=O)NCCOCCOCCOCCOCCN(C)c1ncc(C(=O)N[C@H]3C(C)(C)[C@H](Oc4ccc(C#N)c(Cl)c4)C3(C)C)cn1)c1nnc(C)n1-2 [Compound I-3, N-((1r,3r)-3-(3-chloro-4-cyanophenoxy)-2,2,4,4-tetramethylcyclobutyl)-2-((1-((S)-4-(4-chlorophenyl)-2,3,9-trimethyl-6H-thieno[3,2-f][1,2,4]triazolo[4,3-a][1,4]diazepin-6-yl)-2-oxo-6,9,12,15-tetraoxa-3-azaheptadecan-17-yl)(methyl)amino)pyrimidine-5-carboxamide] | 1500 to 3000
12 | CCNC(=O)C[C@@H]1N=C(c2cccc(OCCOCCOCCOC3CCN(c4ncc(C(=O)N[C@H]5C(C)(C)[C@H](Oc6ccc(C#N)c(Cl)c6)C5(C)C)cn4)CC3)c2)c2c(sc(C)c2C)-n2c(C)nnc21 [Compound I-48, N-((1r,3r)-3-(3-chloro-4-cyanophenoxy)-2,2,4,4-tetramethylcyclobutyl)-2-(4-(2-(2-(2-(3-((S)-6-(2-(ethylamino)-2-oxoethyl)-2,3,9-trimethyl-6H-thieno[3,2-f][1,2,4]triazolo[4,3-a][1,4]diazepin-4-yl)phenoxy)ethoxy)ethoxy)ethoxy)piperidin-1-yl)pyrimidine-5-carboxamide] | > 3000
13 | Cc1sc2c(c1C)C(c1ccc(Cl)cc1)=N[C@H](CC(=O)NCCOCCOCCOCCOCCOC1CCN(c3ncc(C(=O)N[C@H]4C(C)(C)[C@H](Oc5ccc(C#N)c(Cl)c5)C4(C)C)cn3)CC1)c1nnc(C)n1-2 [Compound I-14] | 1500 to 3000
14 | Cc1sc2c(c1C)C(c1ccc(Cl)cc1)=N[C@@H](CC(=O)NCCCCCOC1CCN(c3ncc(C(=O)N[C@H]4C(C)(C)[C@H](Oc5ccc(C#N)c(Cl)c5)C4(C)C)cn3)CC1)c1nnc(C)n1-2 [Compound I-22, N-((1r,3r)-3-(3-chloro-4-cyanophenoxy)-2,2,4,4-tetramethylcyclobutyl)-2-(4-((5-(2-((S)-4-(4-chlorophenyl)-2,3,9-trimethyl-6H-thieno[3,2-A][1,2,4]triazolo[4,3-a][1,4]diazepin-6-yl)acetamido)pentyl)oxy)piperidin-1-yl)pyrimidine-5-carboxamide] | > 3000
15 | Cc1sc2c(c1C)C(c1ccc(Cl)cc1)=N[C@H](CC(=O)NCCOCCOCCOCCOC1CCN(c3ncc(C(=O)N[C@H]4C(C)(C)[C@H](Oc5ccc(C#N)c(Cl)c5)C4(C)C)cn3)CC1)c1nnc(C)n1-2 [Compound I-13] | 1500 to 3000
16 | Cc1sc2c(c1C)C(c1ccc(OC3CC4(CCN(c5ncc(C(=O)N[C@H]6C(C)(C)[C@H](Oc7ccc(C#N)c(Cl)c7)C6(C)C)cn5)CC4)C3)cc1)=N[C@@H](Cc1ncco1)c1nnc(C)n1-2 [Compound I-49, N-[3-(3-chloro-4-cyano-phenoxy)-2,2,4,4-tetramethyl-cyclobutyl]-2-[2-[4-[(9S)-4,5,13-trimethyl-9-(oxazol-2-ylmethyl)-3-thia-1,8,11,12-tetrazatricyclo[8.3.0.02,6]trideca-2(6),4,7,10,12-pentaen-7-yl]phenoxy]-7-azaspiro[3.5]nonan-7-yl]pyrimidine-5-carboxamide] | 500 to 1500
17 | Cc1sc2c(c1C)C(c1ccc(Cl)cc1)=N[C@@H](CC(=O)NCCOCCOCCOCCOC1CCN(c3ncc(C(=O)N[C@H]4C(C)(C)[C@H](Oc5ccc(C#N)c(Cl)c5)C4(C)C)cn3)CC1)c1nnc(C)n1-2 [Compound I-11] | < 500
